How the values were obtained:
[1] = molar heat capacity at constant pressure; conditions: 101.33 kPa, Liquid, Small sample (50 mg) DSC
[2] = Liquid; for thermal diffusivity: 101.33 kPa, Laser flash apparatus

CCCCOC(=O)CCC(C)=O [butyl levulinate]
Conditions | Critical pressure [kPa] | Critical temperature [K] | molar heat capacity at constant pressure [J/K/mol] | thermal diffusivity [m2/s]
[1], 341.16 K | – | – | 346.68 | –
[1], 341.66 K | – | – | 346.17 | –
[1], 342.16 K | – | – | 347.03 | –
[1], 342.66 K | – | – | 346.68 | –
[1], 343.16 K | – | – | 347.72 | –
[1], 343.66 K | – | – | 347.37 | –
[1], 344.16 K | – | – | 347.37 | –
[1], 344.66 K | – | – | 347.54 | –
[1], 345.16 K | – | – | 348.06 | –
[1], 345.66 K | – | – | 348.23 | –
[1], 346.16 K | – | – | 347.89 | –
[1], 346.66 K | – | – | 348.58 | –
[1], 347.16 K | – | – | 348.23 | –
[1], 347.66 K | – | – | 349.09 | –
[1], 348.16 K | – | – | 348.92 | –
[1], 348.66 K | – | – | 349.27 | –
[1], 349.16 K | – | – | 349.27 | –
[1], 349.66 K | – | – | 349.78 | –
[1], 350.16 K | – | – | 349.78 | –
[1], 350.66 K | – | – | 350.13 | –
[1], 351.16 K | – | – | 349.95 | –
[1], 351.66 K | – | – | 349.61 | –
[1], 352.16 K | – | – | 350.13 | –
[1], 352.66 K | – | – | 348.58 | –
[1], 353.16 K | – | – | 348.23 | –
[1], 353.66 K | – | – | 348.58 | –
[1], 354.16 K | – | – | 349.44 | –
[1], 354.66 K | – | – | 349.95 | –
[1], 355.16 K | – | – | 349.95 | –
[1], 355.66 K | – | – | 350.64 | –
[1], 356.16 K | – | – | 350.13 | –
[1], 356.66 K | – | – | 350.13 | –
[1], 357.16 K | – | – | 351.5 | –
[1], 357.66 K | – | – | 350.99 | –
[1], 358.16 K | – | – | 351.5 | –
[1], 358.66 K | – | – | 351.68 | –
[1], 359.16 K | – | – | 351.85 | –
[1], 359.66 K | – | – | 351.85 | –
[1], 360.16 K | – | – | 352.02 | –
[1], 360.66 K | – | – | 351.68 | –
[1], 361.16 K | – | – | 352.37 | –
[1], 361.66 K | – | – | 353.05 | –
[1], 362.16 K | – | – | 352.71 | –
[1], 362.66 K | – | – | 352.88 | –
[1], 363.16 K | – | – | 352.02 | –
[1], 363.66 K | – | – | 352.71 | –
[1], 364.16 K | – | – | 353.23 | –
[1], 364.66 K | – | – | 353.57 | –
[1], 365.16 K | – | – | 353.05 | –
[1], 365.66 K | – | – | 353.4 | –
[1], 366.16 K | – | – | 353.4 | –
[1], 366.66 K | – | – | 354.6 | –
[1], 367.16 K | – | – | 353.57 | –
[1], 367.66 K | – | – | 353.57 | –
[1], 368.16 K | – | – | 354.09 | –
[1], 368.66 K | – | – | 353.92 | –
[1], 369.16 K | – | – | 353.57 | –
[1], 369.66 K | – | – | 353.4 | –
[1], 370.16 K | – | – | 354.95 | –
[1], 370.66 K | – | – | 354.78 | –
[1], 371.16 K | – | – | 354.09 | –
[1], 371.66 K | – | – | 354.78 | –
[1], 372.16 K | – | – | 355.29 | –
[1], 372.66 K | – | – | 355.81 | –
[1], 373.16 K | – | – | 354.78 | –
[1], 373.66 K | – | – | 355.81 | –
[1], 374.16 K | – | – | 355.98 | –
[2], 303.15 K | – | – | – | 7.77e-08
[2], 313.15 K | – | – | – | 7.68e-08
[2], 323.15 K | – | – | – | 7.57e-08
[2], 333.15 K | – | – | – | 7.48e-08
[2], 343.15 K | – | – | – | 7.37e-08
[2], 353.15 K | – | – | – | 7.26e-08
[2], 363.15 K | – | – | – | 7.15e-08
[2], 373.15 K | – | – | – | 7.06e-08
[2], Resistive pulse heating | 2410 | 692 | – | –
